“Also recorded” adds a separate entry of the source.
Tests used:
[1] = Polymorph stability in poloxamer-based formulation (XRPD); type: physicochemical; conditions: for conversion of polymorphic form A into polymorphic form B: XRPD
Method: In a series of experiments, the polymorph stability has been analyzed. Micronized (≤20 μm) polymorphs A and B were added to phosphate buffer containing a non-ionic tenside as vehicle formulation. […]
2 mL of poloxamer based formulation with 12 mg/ml 6-FMC were cooled to 4° C., vortexed and transferred into a 2 mL Eppendorf vial. The cooled vial was centrifuged for 2 min with a table-centrifuge, the supernatant polymer solution was removed with a pipette and discarded. The remaining 6-FMC was resuspended and vortexed with 1.5 mL of ice cold milli-Q water and centrifuged down as described before. The supernatant water was again removed with a pipette and the washing procedure is repeated 3 times (in total 4 washings). Note: Keep the solution cool to facilitate the centrifugation process. After the last washing, the remaining white 6-FMC is cooled with liquid nitrogen and freeze dried overnight at 100 Pa at room temperature.
After 30 hours in formulation 60% of polymorphic form A is converted into polymorphic form B (see FIG. 10). Keeping the formulation for 48 hours or longer results in 100% conversion of polymorphic form A into polymorphic form B as shown in FIG. 11.

[2] = tested on: noise induced hearing loss model (NIHL) in guinea pigs; experiment: Noise induced hearing loss (NIHL) guinea pig model, intratympanic application, PTS by BERA; type: in vivo; conditions: single intratympanic 0.12 mg; for level of improvement of the PTS: across investigated frequencies (FIG. 13 / FIG. 14)
Method: The effect of an intratympanic administration of polymorph A of 6-FMC (0.12 mg) prepared freshly (less than 24 h before use) on the Permanent Threshold Shift has been investigated in guinea pigs (FIG. 13). The Permanent Threshold Shift (PTS) is defined as the difference between the post-traumatic hearing threshold measured on day 14 and the baseline hearing threshold measured on day −3.
Furthermore, the effect of an intratympanic administration of polymorph B of 6-FMC (0.12 mg) prepared at least 48 h before use, on the PTS in guinea pigs is presented in FIG. 14.
General procedures: All in vivo proof of principle studies were performed in the well-established guinea pig model of NIHL. […] Hearing function was assessed by brain evoked response audiometry (BERA).
Methods: Adult guinea pigs received an intratympanic (i.t.) injection of either 6-FMC formulated in a thermosensitive hydrogel or hydrogel alone. All procedures were performed under anesthesia. BERA was used to measure auditory brainstem responses (ABRs) on day −3 and day 14. The auditory stimuli were sinus tones (10 ms duration at 4, 8, 16 kHz) at 5 dB steps from 0-90 dB. These measurements were used to calculate the PTS. The acoustic trauma was performed on day 0 and consisted of a single continuous band (quarter-octave centered at 8 kHz) at 118 dB SPL for 30 min. Animals were treated 1 h after the end of the acoustic exposure. The round window was visualized under a surgical microscope via a small hole drilled in the bone of the bulla of the left ear. 10 μL of gel containing either 6-FMC or vehicle was injected using a Hamilton syringe and a motorized pump onto the round window membrane (RWM) before the hole was closed with dental cement.
Formulation preparation: a non-ionic tenside based solution is prepared in advance, by dissolving an appropriate amount of the non-ionic tenside in water or in PBS buffer and allowing for an overnight mixing under refrigerated conditions. Once the non-ionic tenside is completely dissolved, osmolality and pH are adjusted if desired. Next the solution is filtered through a 500 μm sieve to remove undissolved gel particles. This concludes compounding of the vehicle. API (Active Pharmaceutical Ingredient) containing formulation is prepared by addition of micronized 6-FMC (≤50 μm) at a concentration of 12 mg/mL. For experiments presented in FIG. 13, 6-FMC formulation was applied directly after being prepared. For experiments in FIG. 14, 6-FMC formulation was prepared at least 48 h prior to animal experiments.

[3] = Polymorph stability under manufacturing processes; type: physicochemical; conditions: drying, milling, micronization, wet granulation, spray-drying, compaction
Source text: Various dissolution/crystallization conditions have been applied to try to convert polymorph B into polymorph A. As mentioned above, only with sophisticated procedures polymorph B could be fully converted into polymorph A (Example 4). Polymorphic forms of a drug substance can undergo phase conversion when exposed to a range of manufacturing processes, such as drying, milling, micronization, wet granulation, spray-drying, and compaction. Exposure to environmental conditions such as humidity and temperature can also induce polymorph conversion. Therefore, polymorph A is unstable and thus not suited for pharmaceutical processes, while polymorph B was stable under all these conditions including drying, milling, micronization, wet granulation, spray-drying, and compaction.

[4] = Polymorph conversion under various thermal conditions (polymorph B to polymorph A), XRPD; type: physicochemical
Method: 3-1: Polymorph B of 6-FMC was dissolved in n-heptane, the suspension was heated (100° C.) for 1:45 h under stirring. Then the suspension was cooled and stirred at room temperature for 15 hrs. The precipitate was filtered, washed with n-heptane and dried by air.
3-2: Polymorph B of 6-FMC was diluted in toluene and heated up to 95° C. and cooled down to room temperature. The precipitate was filtered, washed with toluene and dried in an air stream.
3-3: A suspension of polymorph B of 6-FMC was diluted in n-heptane and heated up to 110° C. It was kept for 5 hrs 18 min in a flask under reflux conditions, followed by gentle cooling down to room temperature, stirred for 16 hrs. The precipitate was filtered, washed with heptane and dried by air.
3-4: A suspension of polymorph B of 6-FMC was diluted in n-heptane and heated up to 108° C. until the substance was completely diluted. Seed crystals of polymorph A were added to the solution which was gentle cooled down to room temperature. The precipitate was filtered, washed with n-heptane and dried by air.

[5] = Polymorph conversion using supercritical CO2; type: physicochemical; conditions: 60° C., 350 bar (35 MPa), 2.5 h
Method: Extraction/polymorph conversion with supercritical CO2 was performed with 500 mg of crude, off-white polymorph B in an ExtrateX Rapid Expansion of a Supercritical Solution (REES) system. The extraction vessel was heated to 60° C. with a pressure of 350 bar. The nozzle was a stainless-steel capillary 5 cm length, inner diameter 0.25 mm at 70° C. The expansion vessel was heated to 40° C. at 1-5 Mpa. Equilibration time: 2.5 h; spraying-time: 15 min.
The cylinder of the apparatus in which the supercritical CO2 had been introduced was loaded with polymorph B (FIG. 9A) and heated to 60° C. and a pressure of 35 MPa. The time amounted to 2.5 hrs during which the API dissolved completely in the supercritical CO2.

[6] = Melting/cooling and vacuum sublimation of polymorph powders; type: physicochemical
Method: The polymorph B sample melted at ˜123° C. […] (FIG. 6B).

[7] = day 14 vs day -3, listed as polymorphic form A
[8] = day 14 vs day -3, listed as polymorphic form B

Row | SMILES | conversion of polymorphic form A into polymorphic form B ([1]; 30 hours in poloxamer based formulation (phosphate buffer, non-ionic tenside), micronized) [%] | conversion of polymorphic form A into polymorphic form B ([1]; 48 hours in poloxamer based formulation, listed as polymorphic A) [%] | level of improvement of the PTS [2] | recovery of the PTS compared to vehicle treated animals ([2]; at 16 kHz) | average PTS (threshold shift) in treated animals [2, 7] [dB] | average PTS reduction versus vehicle-treated controls [2, 7] [dB] | stability under manufacturing processes [3] | polymorph conversion in formulation ([1]; initially introduced polymorph B, after 30 h in formulation) | polymorph conversion in formulation ([1]; sample initially made from polymorph B, regular intervals over several months) | PTS at some frequencies ([2]; 4 and 8 kHz (FIG. 14)) | level of improvement of the PTS ([2]; listed as polymorphic form B) | average PTS (threshold shift) in treated animals [2, 8] [dB] | average PTS reduction versus vehicle-treated controls [2, 8] [dB] | conversion of polymorph B into form A (XRPD) ([4]; 3-1: n-heptane, 100° C. for 1:45 h, then room temperature 15 hrs) | conversion of polymorph B into form A (XRPD) ([4]; 3-2: toluene, heated to 95° C., cooled to room temperature, not reproducible) | conversion of polymorph B into form A (XRPD) ([4]; 3-3: n-heptane, 110° C., reflux 5 hrs 18 min, cooled, stirred 16 hrs) | conversion of polymorph B into form A (XRPD) ([4]; 3-4: n-heptane, 108° C., seed crystals of polymorph A added, cooled to room temperature) | polymorph conversion in supercritical CO2 [5] | polymorph conversion in the melt (diffractometry) ([6]; depending on duration of the melting status) | polymorph conversion on vacuum sublimation ([6]; vacuum sublimation at 1-2 kPa)
1 | Cn1c2ccc(F)cc2c2ccncc21 [polymorph A, 6-fluoro-9-methyl-9H-β-carboline] | 60 | 100 | 10-18 dBs | 10-18 dBs | 14.6 | 7.7 | unstable |  |  |  |  |  |  |  |  |  |  |  |  | 
2 | Cn1c2ccc(F)cc2c2ccncc21 [polymorph B, 6-fluoro-9-methyl-9H-β-carboline] |  |  |  |  |  |  | stable | no conversion | no polymorph conversion | 0 | 23-39 dBs | 0.6 | 34.1 | did not reveal conversion into form A | some presence of polymorph A | unchanged polymorph B | unchanged polymorph B | polymorph A is obtained; also recorded: transformation happened of polymorph B into polymorph A | up to a complete conversion | complete conversion into white crystals of polymorph A

Reference: US12466824B2, “Stable polymorphic form of 6-fluoro-9-methyl-9H-β-carboline and uses thereof” (AudioCure Pharma GmbH, priority 2019, dated 2025)
